What was measured:
14-3-3ε = target: T1, 14-3-3ε (Homo sapiens, UniProt P62258); assay: SPR, PEAK tandem peptides binding to immobilised 14-3-3ε; conditions: peptide analyte over amine-coupled 14-3-3ε (CM5); Biacore S200, HBS-TP pH 7.4, 20 °C; steady-state 1:1 fit; mean ± S.E.M.; read-out: SPR KD, 14-3-3ε (epsilon)
T1 construct: 14-3-3ε (UniProt P62258-1; residues 1–255); 8-His tag with TEV protease cleavage site (N); made in house; host or cells: E. coli C41 (DE3)
T1 sequence (P62258 1-255): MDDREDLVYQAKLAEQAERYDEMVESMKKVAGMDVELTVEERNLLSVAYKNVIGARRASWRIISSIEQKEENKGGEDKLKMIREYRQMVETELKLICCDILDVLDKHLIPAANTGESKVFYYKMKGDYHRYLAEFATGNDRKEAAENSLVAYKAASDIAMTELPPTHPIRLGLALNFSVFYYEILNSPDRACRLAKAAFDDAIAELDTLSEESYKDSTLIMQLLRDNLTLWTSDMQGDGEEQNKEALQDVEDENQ
Protocol: Purified […]3 was diluted to 5 μg ml^-1 in 10 mM sodium acetate pH 4.0 and amine coupled at 25 °C to a Series S CM5 sensor chip, in HBS-N running buffer (20 mM HEPES pH 7.4, 150 mM NaCl) to a final immobilization level of 1100-1400 response units (RU), followed by surface deactivation using 1 M ethanolamine. A blank activation/deactivation was used for the reference surface. […] PEAK PRM peptides: […] Samples were injected in a multi-cycle run (flow rate 30 μl min^-1, contact time of 60 s, dissociation 120 s) without regeneration. Sensorgrams were double referenced, and steady-state binding data fitted using a 1:1 binding model using Biacore S200 Evaluation Software (Cytiva, v. 1.1). […] Representative sensorgrams and fitted dissociation constant (KD) values, depicted as mean ± S.E.M.

14-3-3η = target: T2, 14-3-3η (Homo sapiens, UniProt Q04917); assay: SPR, PEAK tandem peptides binding to immobilised 14-3-3η; conditions: peptide analyte over amine-coupled 14-3-3η (CM5); Biacore S200, HBS-TP pH 7.4, 20 °C; steady-state 1:1 fit; mean ± S.E.M.; read-out: SPR KD, 14-3-3η (eta)
T2 construct: 14-3-3η (UniProt Q04917-1; residues 1–246); 8-His tag with TEV protease cleavage site (N); made in house; host or cells: E. coli C41 (DE3)
T2 sequence (Q04917 1-246): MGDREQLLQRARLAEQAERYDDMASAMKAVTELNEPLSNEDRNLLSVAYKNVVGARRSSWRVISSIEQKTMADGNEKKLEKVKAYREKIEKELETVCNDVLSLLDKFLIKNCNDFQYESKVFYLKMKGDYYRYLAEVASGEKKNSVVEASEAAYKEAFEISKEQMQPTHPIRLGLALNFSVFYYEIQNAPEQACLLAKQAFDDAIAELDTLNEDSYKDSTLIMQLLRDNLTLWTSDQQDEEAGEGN
Protocol: (§1) Purified […]3 was diluted to 5 μg ml^-1 in 10 mM sodium acetate pH 4.0 and amine coupled at 25 °C to a Series S CM5 sensor chip, in HBS-N running buffer (20 mM HEPES pH 7.4, 150 mM NaCl) to a final immobilization level of 1100-1400 response units (RU), followed by surface deactivation using 1 M ethanolamine. A blank activation/deactivation was used for the reference surface. […] Samples were injected in a multi-cycle run (flow rate 30 μl min^-1, contact time of 60 s, dissociation 120 s) without regeneration. Sensorgrams were double referenced, and steady-state binding data fitted using a 1:1 binding model using Biacore S200 Evaluation Software (Cytiva, v. 1.1). […] Representative sensorgrams and fitted dissociation constant (KD) values, depicted as mean ± S.E.M.

CrkII^NSH3 [1] = target: T3, CrkII^NSH3 (Homo sapiens, UniProt P46108); assay: ITC, CrkII NSH3 titrated into PEAK3 tandem peptides (binary) or peptide:14-3-3γ complexes (ternary); format: binding; conditions: individual run, repeat 1, CrkII N-SH3 400 µM into the labelled complex 16.8 µM (Titrations 10, 12, 16)
T3 construct: CrkII^NSH3; UniProt P46108-1, residues 134–191; 8-His tag with TEV protease cleavage site (N); made in house; host or cells: E. coli C41 (DE3)
T3 sequence (P46108 134-191): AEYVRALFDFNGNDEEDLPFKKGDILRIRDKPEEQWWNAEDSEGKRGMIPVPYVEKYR
Protocol: ITC binding experiments were conducted using a MicroCal iTC200 instrument (Malvern Instruments). Titrations were conducted at 25 °C in reverse mode (peptide in cell, protein in syringe) and consisted of 19 injections of 2 μl […] at a rate of 2 s μl^−1 at 90 s time intervals, whilst stirring at 1000 rpm. An initial injection of 0.4 μl protein was made and discarded during data analysis. Proteins (14-3-3ɣ or CrkII^NSH3) were first dialyzed overnight at 4 °C into ITC buffer (20 mM HEPES pH 7.4, 150 mM NaCl, 1 mM TCEP), filtered and degassed under vacuum. […] Following the first titration, excess solution was removed from the cell, and the syringe was washed and dried. […] All data were fitted to a single binding site model to obtain the stoichiometry (N), dissociation constant (KD) and the enthalpy of binding (ΔH), using MicroCal PEAQ-ITC Analysis software (v.1.41).

14-3-3γ = target: T4, 14-3-3γ (Homo sapiens, UniProt P61981); assay: SPR, PEAK peptides binding to immobilised 14-3-3γ; conditions: peptide analyte over amine-coupled 14-3-3γ (CM5); Biacore S200, HBS-TP pH 7.4, 20 °C; steady-state 1:1 fit; mean ± S.E.M.
T4 construct: 14-3-3γ (UniProt P61981-1; residues 1–247); 8-His tag with TEV protease cleavage site (N); made in house; host or cells: E. coli C41 (DE3)
T4 sequence (P61981 1-247): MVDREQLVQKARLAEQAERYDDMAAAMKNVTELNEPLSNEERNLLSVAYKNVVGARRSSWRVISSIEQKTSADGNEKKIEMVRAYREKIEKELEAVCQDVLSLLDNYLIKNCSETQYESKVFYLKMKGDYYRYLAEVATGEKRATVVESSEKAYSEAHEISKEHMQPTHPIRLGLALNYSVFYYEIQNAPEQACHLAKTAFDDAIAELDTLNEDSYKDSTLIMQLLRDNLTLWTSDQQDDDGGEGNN
Protocol: as §1

CrkII^NSH3 [2] = target: T3, CrkII^NSH3; assay: SPR, CrkII NSH3 binding to immobilised PEAK proteins; conditions: read-out: CrkII NSH3 SPR KD; interactor as analyte over biotinylated PEAK protein captured with biotin CAPture kit; Biacore 8K+, HBS-TP, 20 °C; steady-state fit; mean ± SD (N = 2); read-out: CrkII-SH2 SPR KD
Protocol: (§2) SPR binding studies of PEAK PRM peptides to CrkII^NSH3 were performed using a Biacore S200 Instrument (Cytiva). Purified CrkII^NSH3 was diluted to 5 µg ml^−1 in 10 mM sodium acetate pH 4.0 and amine coupled at 25 °C to a Series S CM5 sensor chip, in HBS-N running buffer (20 mM HEPES pH 7.4, 150 mM NaCl) to a final immobilization level of 1100–1400 response units (RU), followed by surface deactivation using 1 M ethanolamine. A blank activation/deactivation was used for the reference surface. Peptide binding studies were performed at 20 °C in HBS-TP running buffer (20 mM HEPES pH 7.4, 150 mM NaCl, 1 mM TCEP, 0.005% (v/v) Tween-P20). […] Peptide stocks were further diluted to in running buffer to 10 or 20 µM and prepared as a 11-point concentration series (2-fold serial dilution, […] for PEAK PRM peptides, or 20 µM–20 nM for PEAK tandem motif peptides). Samples were injected in a multi-cycle run (flow rate 30 µl min^−1, contact time of 60 s, dissociation 120 s) without regeneration. Sensorgrams were double referenced, and steady-state binding data fitted using a 1:1 binding model using Biacore S200 Evaluation Software (Cytiva, v. 1.1).
(§3) SPR binding studies of PEAK proteins to full length CrkII/Grb2 and sub-domains were performed using a Biacore 8K+ Instrument (Cytiva) and analyzed using Biacore Insight Evaluation Software (v. 3.0.12.15655). […] Binding studies and steady-state data analysis were performed as described for CrkII^NSH3 with the inclusion of an additional surface regeneration step (60 s injection of 1 M NaCl) between cycles.

CrkII^SH2 = target: T5, CrkII^SH2 (Homo sapiens, UniProt P46108); assay: SPR, CrkII SH2 binding to immobilised PEAK proteins; conditions: interactor as analyte over biotinylated PEAK protein (biotin CAPture); Biacore 8K+, HBS-TP with 500 mM NaCl, 20 °C; steady-state fit; mean ± S.E.M. (N = 3)
T5 construct: CrkII^SH2; UniProt P46108-1, residues 6–120; 8-His tag with TEV protease cleavage site (N); made in house; host or cells: E. coli C41 (DE3)
T5 sequence (P46108 6-120): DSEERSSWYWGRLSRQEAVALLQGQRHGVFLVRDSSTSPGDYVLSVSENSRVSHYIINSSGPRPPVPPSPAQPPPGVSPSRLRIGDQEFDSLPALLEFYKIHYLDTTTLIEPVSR
Protocol: as §2, §3

14-3-3ɣ = assay: SPR, 14-3-3ɣ binding to immobilised PEAK proteins; design: species or system human; conditions: 14-3-3ɣ analyte 0.46–1000 nM, multi-cycle, over immobilised biotinylated PEAK protein; Biacore 8K+, 20 °C; KD only an estimate (bivalent analyte model); N = 3
Protocol: PEAK proteins and adapters proteins (full length or individual domains) were biotinylated using EZ-Link™ NHS-PEG4-Biotin (Thermo Fisher) at a 1:1 molar ratio (100 µM) for 1 h at room temperature, then excess biotin was removed by buffer exchange using a Zeba™ Spin Desalting Column (Thermo Fisher) into HBS-T buffer (20 mM HEPES pH 7.4, 150 mM NaCl, 1 mM TCEP).
SPR binding studies of PEAK proteins to full length CrkII/Grb2 and sub-domains were performed using a Biacore 8K+ Instrument (Cytiva) and analyzed using Biacore Insight Evaluation Software (v. 3.0.12.15655). […] Biotinylated PEAK proteins (with or without Src phosphorylation; 500 nM in HBS-TP) were immobilized using a biotin CAPture kit (Cytiva) in HBS-TP running buffer at 20 °C. Binding studies and steady-state data analysis were performed as described for CrkII^NSH3 with the inclusion of an additional surface regeneration step (60 s injection of 1 M NaCl) between cycles. For Grb2^FL, Grb2^SH2, CrkII^SH2, CrkII^FL monomer and CrkII^FL dimer, to reduce nonspecific interactions the HBS-TP running buffer was supplemented with additional NaCl to a final concentration of 500 mM.
Binding studies for 14-3-3ɣ were undertaken in the same way in multi cycle mode (8 point, 3-fold serial dilution series, 0.46–1000 nM, 60 s contact time, 300 s dissociation).

CC[C@H](C)[C@H](NC(=O)[C@H](CCCCN)NC(=O)[C@H](CCCCN)NC(=O)[C@H](CCC(N)=O)NC(=O)[C@@H]1CCCN1C(=O)[C@H](CC(C)C)NC(=O)[C@@H]1CCCN1C(=O)[C@@H]1CCCN1C(=O)[C@@H]1CCCN1C(C)=O)C(=O)N[C@H](C(=O)N[C@@H](CO)C(=O)N[C@@H](CCCNC(=N)N)C(=O)N[C@@H](C)C(=O)N[C@@H](C)C(=O)N[C@@H](COP(=O)(O)O)C(=O)N[C@@H](CO)C(=O)N1CCC[C@H]1C(=O)N[C@@H](CC(=O)O)C(=O)NCC(=O)N[C@@H](Cc1ccccc1)C(N)=O)C(C)C (single isomer, unassigned) [PEAK2^tandem-pS826]
Kd (14-3-3ε): 7.4 µM
Kd (14-3-3η): 1900 nM

CC[C@H](C)[C@H](NC(=O)[C@H](CCCCN)NC(=O)[C@H](CCCCN)NC(=O)[C@@H]1CCCN1C(=O)[C@H](CC(C)C)NC(=O)[C@@H]1CCCN1C(=O)[C@@H]1CCCN1C(=O)[C@@H]1CCCN1C(=O)[C@H](CC(C)C)NC(=O)[C@@H]1CCCN1C(C)=O)C(=O)N[C@@H](CC(C)C)C(=O)N[C@H](C(=O)N[C@@H](CCCNC(=N)N)C(=O)N[C@H](C(=O)N[C@@H](CCC(N)=O)C(=O)N[C@@H](COP(=O)(O)O)C(=O)N[C@@H](CC(C)C)C(=O)N1CCC[C@H]1C(=O)N[C@H](C(=O)N[C@@H](CCCNC(=N)N)C(=O)N[C@@H](CCCNC(=N)N)C(N)=O)[C@@H](C)O)[C@@H](C)O)[C@@H](C)O (single isomer, unassigned) [PEAK3 tandem-pS69 : 14-3-3γ (K50E)]
ITC -T∆S (CrkII^NSH3 [1]): -13.5 kJ/mol
ITC N (sites) (CrkII^NSH3 [1]): 0.69
ITC ∆G (CrkII^NSH3 [1]): -30.8 kJ/mol
ITC ∆H (CrkII^NSH3 [1]): -17.4 kJ/mol

CC[C@H](C)[C@H](NC(=O)[C@H](CCCCN)NC(=O)[C@H](CCCCN)NC(=O)[C@@H]1CCCN1C(=O)[C@H](CC(C)C)NC(=O)[C@@H]1CCCN1C(=O)[C@@H]1CCCN1C(=O)[C@@H]1CCCN1C(=O)[C@H](CC(C)C)NC(=O)[C@@H]1CCCN1C(C)=O)C(=O)N[C@@H](CC(C)C)C(=O)N[C@H](C(=O)N[C@@H](CCCNC(=N)N)C(N)=O)[C@@H](C)O (single isomer, unassigned) [PEAK3^54–66]
SPR KD, 14-3-3γ (gamma) (14-3-3γ): No binding

CC[C@H](C)[C@H](NC(=O)[C@H](CCCCN)NC(=O)[C@H](CCCCN)NC(=O)[C@@H]1CCCN1C(=O)[C@H](CC(C)C)NC(=O)[C@@H]1CCCN1C(=O)[C@@H]1CCCN1C(=O)[C@@H]1CCCN1C(=O)[C@H](CC(C)C)NC(=O)[C@@H]1CCCN1C(C)=O)C(=O)N[C@@H](CC(C)C)C(=O)N[C@H](C(=O)N[C@@H](CCCNC(=N)N)C(=O)N[C@H](C(=O)N[C@@H](CCC(N)=O)C(=O)N[C@@H](COP(=O)(O)O)C(=O)N[C@@H](CC(C)C)C(=O)N1CCC[C@H]1C(=O)N[C@H](C(=O)N[C@@H](CCCNC(=N)N)C(=O)N[C@@H](CCCNC(=N)N)C(N)=O)[C@@H](C)O)[C@@H](C)O)[C@@H](C)O (single isomer, unassigned) [PEAK3^tandem-pS69]
Kd (14-3-3ε): 0.78 µM

PEAK3-FL E.coli: full length human PEAK3 (1–473) purified from E. coli, no bound 14-3-3
Kd (CrkII^NSH3 [2]): 9.6 µM
SPR KD, CrkII-SH2 (CrkII^SH2): No binding
SPR KD, 14-3-3ɣ (14-3-3ɣ): No binding

— PMC10279719 (Nature Communications, 2023)
